This test has as its target T1, RIPK2 (Homo sapiens, UniProt O43353).
T1 construct: Full length FLAG His tagged RIPK2 was purified from a Baculovirus expression system; FLAG (N); 6His (N); made in house; host or cells: Spodoptera frugiperda (Sf9) insect cells, baculovirus
As to the kind of experiment: Fluorescent polarization based binding assay at the ATP binding pocket of RIPK2. As to conditions: full length FLAG His tagged RIPK2; competition with fluorescently labeled ATP competitive ligand (5 nM); mean of a minimum of 2 experiments. The method, then:
A fluorescent polarization based binding assay was developed to quantitate interaction of novel test compounds at the ATP binding pocket of RIPK2, by competition with a fluorescently labeled ATP competitive ligand. Full length FLAG His tagged RIPK2 was purified from a Baculovirus expression system and was used at a final assay concentration of twice the KDapparent. […] Both the enzyme and ligand were prepared in solutions in 50 mM HEPES pH7.5, 150 mM NaCl, 10 mM MgCl2, 1 mM DTT, and 1 mM CHAPS. Test compounds were prepared in 100% DMSO and 100 nL was dispensed to individual wells of a multiwell plate. Next, 5 ul RIPK2 was added to the test compounds at twice the final assay concentration, and incubated at rt for 10 min. Following the incubation, 5 ul of the fluorescent labeled ligand solution, was added to each reaction, at twice the final assay concentration, and incubated at rt for at least 10 min. Finally, samples were read on an instrument capable of measuring fluorescent polarization. Test compound inhibition was expressed as percent (%) inhibition of internal assay controls.
For concentration/dose response experiments, normalized data were fit and pIC50s determined using conventional techniques.
Gateway® LR cloning was used to site-specifically recombine RIPK2 downstream to an N-terminal FLAG-6His contained within the destination vector pDEST8-FLAG-His6 according to the protocol described by Invitrogen. Transfection into Spodoptera frugiperda (Sf9) insect cells was performed using Cellfectin® (Invitrogen), according to the manufacturer's protocol.

The structures appear in SMILES notation. Where a name gives a salt, the structure may show the parent alone.

As usually defined, the IC50 is the concentration that gives 50% inhibition.

T1 sequence (O43353 whole entry): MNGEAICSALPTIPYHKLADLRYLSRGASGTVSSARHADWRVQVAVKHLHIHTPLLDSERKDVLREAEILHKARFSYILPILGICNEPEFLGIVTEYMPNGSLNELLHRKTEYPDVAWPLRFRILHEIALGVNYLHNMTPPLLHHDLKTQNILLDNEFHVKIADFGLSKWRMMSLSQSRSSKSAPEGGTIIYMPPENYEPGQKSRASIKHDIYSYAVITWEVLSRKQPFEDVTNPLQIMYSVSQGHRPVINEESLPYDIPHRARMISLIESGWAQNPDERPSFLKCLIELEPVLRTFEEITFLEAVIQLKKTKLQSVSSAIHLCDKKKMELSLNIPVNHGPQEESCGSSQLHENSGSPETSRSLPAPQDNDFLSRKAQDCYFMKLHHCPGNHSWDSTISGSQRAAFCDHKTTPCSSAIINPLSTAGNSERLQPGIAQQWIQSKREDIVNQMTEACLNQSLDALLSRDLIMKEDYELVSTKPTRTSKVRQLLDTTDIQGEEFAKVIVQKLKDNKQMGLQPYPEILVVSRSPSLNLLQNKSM

Take `Cc1n[nH]c(Nc2ccnc3cc(OCC(C)O)c(S(=O)(=O)C(C)(C)C)cc23)c1C` (racemic) [Example 1, 1-((6-(tert-Butylsulfonyl)-4-((3,4-dimethyl-1H-pyrazol-5-yl)amino)quinolin-7-yl)oxy)propan-2-ol]: the 50% inhibitory concentration (IC50) is 3.98 nM.
Regarding `Cc1n[nH]c(Nc2ccnc3cc(OC[C@@H](C)O)c(S(=O)(=O)C(C)(C)C)cc23)c1C` [2(R), (R)-1-((6-(tert-Butylsulfonyl)-4-((3,4-dimethyl-1H-pyrazol-5-yl)amino)quinolin-7-yl)oxy)propan-2-ol, hydrochloride], the IC50 is 3.16 nM.
The value for `Cc1n[nH]c(Nc2ccnc3cc(OC[C@H](C)O)c(S(=O)(=O)C(C)(C)C)cc23)c1C` [2(S), (S)-1-((6-(tert-butylsulfonyl)-4-((3,4-dimethyl-1H-pyrazol-5-yl)amino)quinolin-7-yl)oxy)propan-2-ol, hydrochloride] was 3.16 nM; that for `Cc1n[nH]c(Nc2ccnc3cc(OCC(C)(C)O)c(S(=O)(=O)C(C)(C)C)cc23)c1C` [Example 4, 1-((6-(tert-Butylsulfonyl)-4-((3,4-dimethyl-1H-pyrazol-5-yl)amino)quinolin-7-yl)oxy)-2-methylpropan-2-ol] was 6.31 nM.
Turning to `Cc1n[nH]c(Nc2ccnc3cc(OCC(F)F)c(S(=O)(=O)C(C)(C)C)cc23)c1C` [Example 5, 6-(tert-Butylsulfonyl)-7-(2,2-difluoroethoxy)-N-(3,4-dimethyl-1H-pyrazol-5-yl)quinolin-4-amine], the IC50 was 5.01 nM.
The value for `COCCCOc1cc2nccc(Nc3[nH]nc(C)c3C)c2cc1S(=O)(=O)C(C)(C)C` [Example 6, 6-(tert-Butylsulfonyl)-N-(3,4-dimethyl-1H-pyrazol-5-yl)-7-(3-methoxypropoxy)quinolin-4-amine] was 3.98 nM; that for `Cc1[nH]nc(Nc2ccnc3cc(OCC(F)(F)F)c(S(=O)(=O)C(C)(C)C)cc23)c1C` [Example 7, 6-(tert-butylsulfonyl)-N-(4,5-dimethyl-1H-pyrazol-3-yl)-7-(2,2,2-trifluoroethoxy) quinolin-4-amine] was 5.01 nM.
For `Cc1n[nH]c(Nc2ccnc3cc(F)c(S(=O)(=O)C(C)(C)C)cc23)c1C` [Example 10, 6-(tert-Butylsulfonyl)-N-(3,4-dimethyl-1H-pyrazol-5-yl)-7-fluoroquinolin-4-amine] the value was 15.8 nM.

For the origin of these results see patent US9216965B2, “Amino-quinolines as kinase inhibitors” (GlaxoSmithKline Intellectual Property Development Limited, priority 2012, dated 2015).
